Like-named read-outs stand apart in the source and are kept apart here.
Legend:
Format in all cases: biochemical
human Yes1 enzyme = molecular target: T1, human Yes1 enzyme (Homo sapiens, UniProt P07947); assay: Yes1 enzyme inhibitory activity (time-resolved fluorometry, biotinylated peptide phosphorylation); conditions: read-out: YES_IC50
T1 construct: made in house
Procedure, shortened: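 Inhibition was expressed against a compound-free control to give IC50, using TR-FRET read-out (Eu-cryptate anti-pTyr antibody, streptavidin-XL665).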

human Src enzyme = molecular target: T2, human Src enzyme (Homo sapiens, UniProt P12931); assay: Src enzyme inhibitory activity (time-resolved fluorometry, biotinylated peptide phosphorylation); conditions: read-out: SRC_IC50
T2 construct: purchased Carna Biosciences, Inc. 08-173
Procedure, shortened: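 Compounds were tested for blocking tyrosine phosphorylation of a biotinylated peptide substrate by recombinant human Src. Phosphorylated product was quantified by time-resolved fluorometry using europium cryptate and XL665 conjugates, and IC50 was calculated against the compound-free control.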

human Lck enzyme = molecular target: T3, human Lck enzyme (Homo sapiens, UniProt P06239); assay: Lck enzyme inhibitory activity (time-resolved fluorometry, biotinylated peptide phosphorylation); conditions: read-out: LCK_IC50
T3 construct: purchased Carna Biosciences, Inc. 08-170
Procedure, shortened: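 Readout pairs a europium cryptate-labelled anti-phosphotyrosine antibody with XL665-streptavidin, measured by time-resolved fluorescence. IC50 derived from percent inhibition against untreated controls.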

[1] = biotinylated peptide phosphorylation

T1 sequence (P07947 whole entry): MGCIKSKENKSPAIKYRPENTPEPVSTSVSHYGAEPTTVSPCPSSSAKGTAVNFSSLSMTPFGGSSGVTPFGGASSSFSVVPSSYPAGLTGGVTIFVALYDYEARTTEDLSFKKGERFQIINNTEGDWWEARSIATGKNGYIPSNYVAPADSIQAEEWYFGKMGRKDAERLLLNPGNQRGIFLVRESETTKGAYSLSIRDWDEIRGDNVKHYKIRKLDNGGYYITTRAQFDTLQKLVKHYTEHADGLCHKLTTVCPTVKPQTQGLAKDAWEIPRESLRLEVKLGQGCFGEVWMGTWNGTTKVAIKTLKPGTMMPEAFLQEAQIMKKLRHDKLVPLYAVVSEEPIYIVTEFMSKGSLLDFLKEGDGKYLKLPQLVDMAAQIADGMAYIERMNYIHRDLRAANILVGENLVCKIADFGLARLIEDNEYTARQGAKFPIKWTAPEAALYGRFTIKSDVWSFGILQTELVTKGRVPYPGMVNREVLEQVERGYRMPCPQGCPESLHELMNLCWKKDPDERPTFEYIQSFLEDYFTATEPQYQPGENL
T2 sequence (P12931 whole entry): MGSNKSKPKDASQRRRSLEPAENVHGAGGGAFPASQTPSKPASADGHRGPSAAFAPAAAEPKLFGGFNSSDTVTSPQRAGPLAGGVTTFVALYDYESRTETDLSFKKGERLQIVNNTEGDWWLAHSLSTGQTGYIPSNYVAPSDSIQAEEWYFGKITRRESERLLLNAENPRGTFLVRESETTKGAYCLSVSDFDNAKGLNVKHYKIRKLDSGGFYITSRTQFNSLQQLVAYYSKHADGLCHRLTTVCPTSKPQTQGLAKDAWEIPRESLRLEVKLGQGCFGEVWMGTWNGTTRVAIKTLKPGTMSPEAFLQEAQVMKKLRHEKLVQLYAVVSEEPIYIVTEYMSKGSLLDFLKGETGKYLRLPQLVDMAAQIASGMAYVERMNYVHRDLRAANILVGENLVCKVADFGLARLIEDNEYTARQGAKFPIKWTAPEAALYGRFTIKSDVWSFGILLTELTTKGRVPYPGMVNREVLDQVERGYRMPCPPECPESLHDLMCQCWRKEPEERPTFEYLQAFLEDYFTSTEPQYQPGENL
T3 sequence (P06239 whole entry): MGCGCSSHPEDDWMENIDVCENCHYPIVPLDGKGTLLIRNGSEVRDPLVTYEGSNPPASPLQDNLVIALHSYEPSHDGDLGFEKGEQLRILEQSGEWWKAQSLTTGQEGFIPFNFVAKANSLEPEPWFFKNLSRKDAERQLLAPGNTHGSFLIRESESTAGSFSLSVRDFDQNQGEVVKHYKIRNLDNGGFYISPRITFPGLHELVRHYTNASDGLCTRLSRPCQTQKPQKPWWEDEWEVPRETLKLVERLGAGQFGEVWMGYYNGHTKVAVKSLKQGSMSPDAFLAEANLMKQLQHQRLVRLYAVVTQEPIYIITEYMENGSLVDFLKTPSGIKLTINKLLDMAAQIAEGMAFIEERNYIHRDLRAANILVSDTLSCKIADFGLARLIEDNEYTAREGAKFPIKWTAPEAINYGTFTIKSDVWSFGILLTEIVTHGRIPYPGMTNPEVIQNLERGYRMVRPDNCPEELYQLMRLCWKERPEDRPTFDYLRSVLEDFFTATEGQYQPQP

Row | Structure (SMILES) | IC50 (human Yes1 enzyme) [nM] | IC50 (human Src enzyme) [nM] | IC50 (human Lck enzyme) [nM] | IC50 (human Yes1 enzyme; [1]) [nM] | IC50 (human Src enzyme; [1]) [nM] | IC50 (human Lck enzyme; [1]) [nM]
1 | Cc1cc2cc(C(=O)c3cnn(-c4ccc(Oc5ccccc5F)cc4C)c3N)[nH]c2cc1N1C(=O)NC2(CCN(C3COC3)C2)C1=O (stereo not drawn) [Example 5-1-393, 3-[2-[5-amino-1-[4-(2-fluorophenoxy)-2-methylphenyl]pyrazole-4-carbonyl]-5-methyl-1H-indol-6-yl]-7-(oxetan-3-yl)-1,3,7-triazaspiro [4.4]nonane-2,4-dione] | 1 | 9.8 | 4.6 |  |  | 
2 | Cc1cc(Oc2c(F)cccc2F)ncc1-n1ncc(C(=O)c2cc3cc(SC(F)F)c(NS(=O)(=O)C4CCOCC4)cc3[nH]2)c1N [Example 5-1-346, N-[2-[5-amino-1-[6-(2,6-difluorophenoxy)-4-methylpyridin-3-yl]pyrazole-4-carbonyl]-5-(difluoromethylsulfanyl)-1H-indol-6-yl]oxane-4-sulfonamide] | 8.8 | 510 | 120 |  |  | 
3 | Cc1cc2cc(C(=O)c3cnn(-c4cnc(Oc5c(F)cccc5F)cc4C)c3N)[nH]c2cc1N1C(=O)N[C@@H](C)C1=O [Example 5-1-443, (5S)-3-[2-[5-amino-1-[6-(2,6-difluorophenoxy)-4-methylpyridin-3-yl]pyrazole-4-carbonyl]-5-methyl-1H-indol-6-yl]-5-methylimidazolidine-2,4-dione] |  |  |  | 1.4 | 25 | 4.9
4 | Cc1cc(Oc2ccccc2F)ncc1-n1ncc(C(=O)c2cc3cc(OC(F)F)c(N4C(=O)NC(C)(C)C4=O)cc3[nH]2)c1N [Example 5-1-402, 3-[2-[5-amino-1-[6-(2-fluorophenoxy)-4-methylpyridin-3-yl]pyrazole-4-carbonyl]-5-(difluoromethoxy)-1H-indol-6-yl]-5,5-dimethylimidazolidine-2,4-dione] |  |  |  | 1.8 | 63 | 8.2
5 | Cc1cc2cc(C(=O)c3cnn(-c4ccc(Oc5ccccc5F)c(C)c4C)c3N)[nH]c2cc1NS(C)(=O)=O [Example 5-1-213, N-[2-[5-amino-1-[4-(2-fluorophenoxy)-2,3-dimethylphenyl]pyrazole-4-carbonyl]-5-methyl-1H-indol-6-yl]methanesulfonamide] | 9.8 | 600 | 150 |  |  | 
6 | Cc1cc2cc(C(=O)c3cnn(-c4cnc(Oc5ccccc5F)cc4C)c3N)[nH]c2cc1NS(=O)(=O)c1cccc(C#N)n1 [Example 5-1-479, N-[2-[5-amino-1-[6-(2-fluorophenoxy)-4-methylpyridin-3-yl]pyrazole-4-carbonyl]-5-methyl-1H-indol-6-yl]-6-cyanopyridine-2-sulfonamide] |  |  |  | 3.3 | 770 | 170
7 | Cc1cc(Oc2ccccc2F)ccc1-n1ncc(C(=O)c2cc3cc(OCC(F)F)c(NS(=O)(=O)CCC(F)F)cc3[nH]2)c1N [Example 4-24-023, N-[2-[5-amino-1-[4-(2-fluorophenoxy)-2-methylphenyl]pyrazole-4-carbonyl]-5-(2,2-difluoroethoxy)-1H-indol-6-yl]-3,3-difluoropropane-1-sulfonamide] |  |  |  | 2.3 | 24 | 14
8 | Cc1cc(-n2ncc(C(=O)c3cc4cc(OCC(F)F)c(N5CCC(N6CCOCC6)CC5)cc4[nH]3)c2N)ccc1Oc1ccccc1F [Example 5-1-172, [5-amino-1-[4-(2-fluorophenoxy)-3-methylphenyl]pyrazol-4-yl]-[5-(2,2-difluoroethoxy)-6-(4-morpholin-4-ylpiperidin-1-yl)-1H-indol-2-yl]methanone] | 0.9 | 170 | 18 |  |  | 
9 | Cc1cc(-n2ncc(C(=O)c3cc4cc(C)c(N5C(=O)NC6(CC6)C5=O)cc4[nH]3)c2N)ccc1Oc1ccccc1F [Example 5-1-473, 6-[2-[5-amino-1-[4-(2-fluorophenoxy)-3-methylphenyl]pyrazole-4-carbonyl]-5-methyl-1H-indol-6-yl]-4,6-diazaspiro[2.4]heptane-5,7-dione] |  |  |  | 17 | 3500 | 240
10 | Cc1cc2cc(C(=O)c3cnn(-c4cnc(Oc5c(F)cccc5F)cc4C)c3N)[nH]c2cc1N1C(=O)CNC1=O [Example 5-1-442, 3-[2-[5-amino-1-[6-(2,6-difluorophenoxy)-4-methylpyridin-3-yl]pyrazolo-4-carbonyl]-5-methyl-1H-indol-6-yl]imidazolidine-2,4-dione] |  |  |  | 1.2 | 21 | 4.9
11 | Cc1cc(Oc2cccc(Cl)c2)cc(F)c1-n1ncc(C(=O)c2cc3cc(F)c(NS(C)(=O)=O)cc3[nH]2)c1N [Example 4-7-011, N-[2-[5-amino-1-[4-(3-chlorophenoxy)-2-fluoro-6-methylphenyl]pyrazole-4-carbonyl]-5-fluoro-1H-indol-6-yl]methanesulfonamide] |  |  |  | 14 | 200 | 97
12 | Cc1cc2cc(C(=O)c3cnn(-c4cnc(Oc5c(F)cccc5F)cc4C)c3N)[nH]c2cc1NS(=O)(=O)C1CCCCC1 [Example 5-1-314, N-[2-[5-amino-1-[6-(2,6-difluorophenoxy)-4-methylpyridin-3-yl]pyrazole-4-carbonyl]-5-methyl-1H-indol-6-yl]cyclohexanesulfonamide] | 9.6 | 480 | 150 |  |  | 
13 | Cc1cc2cc(C(=O)c3cnn(-c4cnc(Oc5ccccc5F)cc4C)c3N)[nH]c2cc1NS(=O)(=O)c1cccc(C(F)(F)F)c1 [Example 5-1-463, N-[2-[5-amino-1-[6-(2-fluorophenoxy)-4-methylpyridin-3-yl]pyrazole-4-carbonyl]-5-methyl-1H-indol-6-yl]-3-(trifluoromethyl) benzenesulfonamide] |  |  |  | 12 | 1900 | 420
14 | Cc1cc2cc(C(=O)c3cnn(-c4ccc(Oc5cccc(F)c5F)cc4C)c3N)[nH]c2cc1NS(=O)(=O)CCCF [Example 4-2-069, N-[2-[5-amino-1-[4-(2,3-difluorophenoxy)-2-methylphenyl]pyrazole-4-carbonyl]-5-methyl-1H-indol-6-yl]-3-fluoropropane-1-sulfonamide] |  |  |  | 1 | 67 | 22
15 | Cc1cc(Oc2ccccc2F)ncc1-n1ncc(C(=O)c2cc3cc(OCC(F)F)c(NS(=O)(=O)c4cccc(C#N)c4)cc3[nH]2)c1N [Example 5-1-422, N-[2-[5-amino-1-[6-(2-fluoropheooxy)-4-methylpyridin-3-yl]pyrazole-4-carbonyl]-5-(2,2-difluoroethoxy)-1H-indol-6-yl]-3-cyanobenzenesulfonamide] |  |  |  | 1.7 | 250 | 91
16 | Cc1cc(Oc2c(F)cccc2F)ncc1-n1ncc(C(=O)c2cc3cc(OCC(F)F)c(N4C(=O)NC5(CCN(Cc6ccccc6)CC5)C4=O)cc3[nH]2)c1N [Example 5-1-351, 3-[2-[5-amino-1-[6-(2,6-difluorophenoxy)-4-methylpyridin-3-yl]pyrazole-4-carbonyl]-5-(2,2-difluoroethoxy)-1H-indol-6-yl]-8-benzyl-1,3,8-triazaspiro[4.5]decane-2,4-dione] | 0.65 | 6 | 2.4 |  |  | 
17 | Cc1cc(-n2ncc(C(=O)c3cc4cc(C)c(N5C(=O)NC6(COC6)C5=O)cc4[nH]3)c2N)ccc1Oc1ccccc1F [Example 5-1-475, 7-[2-[5-amino-1-[4-(2-fluorophenoxy)-3-methylphenyl]pyrazole-4-carbonyl]-5-methyl-1H-indol-6-yl]-2-oxa-5,7-diazaspiro[3.4] octane-6,8-dione] |  |  |  | 8.2 | 1400 | 71
18 | COc1cc2cc(C(=O)c3cnn(-c4ccc(Oc5ccccc5F)cc4C)c3N)[nH]c2cc1NS(=O)(=O)N1CCOCC1 [Example 4-12-003, N-[2-[5-amino-1-[4-(2-fluorophenoxy)-2-methylphenyl]pyrazole-4-carbonyl]-5-methoxy-1H-indol-6-yl]morpholine-4-sulfonamide] |  |  |  | 0.54 | 45 | 14
19 | Cc1cc(Oc2ccccc2F)ccc1-n1ncc(C(=O)c2cc3cc(F)c(N4C(=O)[C@@H]5CCCN5C4=O)cc3[nH]2)c1N [Example 5-1-448, (7aS)-2-[2-[5-amino-1-[4-(2-fluorophenoxy)-2-methylphenyl]pyrazole-4-carbonyl]-5-fluoro-1H-indol-6-yl]-5,6,7,7a-tetrahydropyrrolo [1,2-c]imidazole-1,3-dione] |  |  |  | 1.2 | 23 | 3.9
20 | Cc1cc2cc(C(=O)c3cnn(-c4ccc(Oc5ccccc5F)cc4C)c3N)[nH]c2cc1NS(=O)(=O)c1cccc(F)n1 [Example 5-1-515, N-[2-[5-amino-1-[4-(2-fluorophenoxy)-2-methylphenyl]pyrazole-4-carbonyl]-5-methyl-1H-indol-6-yl]-6-fluoropyridine-2-sulfonamide] |  |  |  | 2.4 | 280 | 59
21 | Cc1cc(Oc2ccc(F)cc2)ncc1-n1ncc(C(=O)c2cc3cc(F)c(NS(C)(=O)=O)cc3[nH]2)c1N [Example 4-2-039, N-[2-[5-amino-1-[6-(4-fluorophenoxy)-4-methylpyridin-3-yl]pyrazole-4-carbonyl]-5-fluoro-1H-indol-6-yl]methanesulfonamide] |  |  |  | 4.1 | 84 | 32
22 | COc1cc2cc(C(=O)c3cnn(-c4cnc(Oc5ccccc5F)cc4C)c3N)[nH]c2cc1NC(=O)N1CCOCC1 [Example 4-12-002, N-[2-[5-amino-1-[6-(2-fluorophenoxy)-4-methylpyridin-3-yl]pyrazole-4-carbonyl]-5-methoxy-1H-indol-6-yl]morpholine-4-carboxamide] |  |  |  | 3.2 | 40 | 8
